In publication PMC11314561, “Design and Synthesis of Novel Aminoindazole-pyrrolo[2,3-b]pyridine Inhibitors of IKKα That Selectively Perturb Cellular Non-Canonical NF-κB Signalling” (Molecules, 2024) one finds inhibition data, which are given here for 3 compounds.

Test in all cases: kinase panel
Format in all cases: biochemical

One assay concerns the target Pim-1(h) (Homo sapiens, UniProt P11309). From the text: (§1) We profiled three compounds from the series across the kinome (Table S1).
(§2) Ta b l e S1. The % inhibition of compounds 4, 5r [SU1261], and 6g [SU1349] against a
(§3) panel of kinase enzymes. We proϐiled three compounds from the series across 231
(§4) kinases. For SU1349, given its structural similarity with SU1261, we selected 98 from the
(§5) Tested kinase % inhibiƟon

Another assay addresses CDK5/p25(h) (Homo sapiens, UniProt Q00535).
Source text: as §1, §2, §3, §4, §5

Another assay addresses T1, Mer(h) (Homo sapiens, UniProt Q12866).
T1 sequence (Q12866 21-999): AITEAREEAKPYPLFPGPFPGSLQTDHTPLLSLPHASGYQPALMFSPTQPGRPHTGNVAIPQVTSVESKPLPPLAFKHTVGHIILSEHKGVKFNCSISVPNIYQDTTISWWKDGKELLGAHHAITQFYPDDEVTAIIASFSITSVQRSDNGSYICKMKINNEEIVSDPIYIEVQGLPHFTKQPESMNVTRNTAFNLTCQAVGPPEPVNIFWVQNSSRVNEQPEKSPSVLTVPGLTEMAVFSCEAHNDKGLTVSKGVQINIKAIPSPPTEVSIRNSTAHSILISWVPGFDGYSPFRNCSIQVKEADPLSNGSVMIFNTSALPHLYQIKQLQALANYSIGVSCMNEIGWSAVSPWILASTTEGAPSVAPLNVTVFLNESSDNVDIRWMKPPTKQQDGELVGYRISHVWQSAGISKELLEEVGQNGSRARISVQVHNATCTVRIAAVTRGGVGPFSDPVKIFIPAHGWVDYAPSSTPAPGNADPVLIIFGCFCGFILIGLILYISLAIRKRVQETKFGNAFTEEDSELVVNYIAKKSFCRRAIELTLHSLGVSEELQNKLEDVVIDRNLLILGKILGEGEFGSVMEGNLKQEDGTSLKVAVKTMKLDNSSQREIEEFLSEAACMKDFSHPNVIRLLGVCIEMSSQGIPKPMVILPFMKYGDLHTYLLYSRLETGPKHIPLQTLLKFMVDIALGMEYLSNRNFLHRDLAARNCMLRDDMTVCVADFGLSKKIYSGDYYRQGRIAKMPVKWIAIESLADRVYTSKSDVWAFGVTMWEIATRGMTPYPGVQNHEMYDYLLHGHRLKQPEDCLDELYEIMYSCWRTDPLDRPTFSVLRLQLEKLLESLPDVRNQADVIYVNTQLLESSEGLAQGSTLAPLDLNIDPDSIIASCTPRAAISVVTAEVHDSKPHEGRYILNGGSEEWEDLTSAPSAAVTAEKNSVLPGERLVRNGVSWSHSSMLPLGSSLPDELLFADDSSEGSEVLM
Source text: as §1, §2, §3, §4, §5

A further assay has as its target T2, EphA1(h) (Homo sapiens, UniProt P21709).
T2 sequence (P21709 26-976): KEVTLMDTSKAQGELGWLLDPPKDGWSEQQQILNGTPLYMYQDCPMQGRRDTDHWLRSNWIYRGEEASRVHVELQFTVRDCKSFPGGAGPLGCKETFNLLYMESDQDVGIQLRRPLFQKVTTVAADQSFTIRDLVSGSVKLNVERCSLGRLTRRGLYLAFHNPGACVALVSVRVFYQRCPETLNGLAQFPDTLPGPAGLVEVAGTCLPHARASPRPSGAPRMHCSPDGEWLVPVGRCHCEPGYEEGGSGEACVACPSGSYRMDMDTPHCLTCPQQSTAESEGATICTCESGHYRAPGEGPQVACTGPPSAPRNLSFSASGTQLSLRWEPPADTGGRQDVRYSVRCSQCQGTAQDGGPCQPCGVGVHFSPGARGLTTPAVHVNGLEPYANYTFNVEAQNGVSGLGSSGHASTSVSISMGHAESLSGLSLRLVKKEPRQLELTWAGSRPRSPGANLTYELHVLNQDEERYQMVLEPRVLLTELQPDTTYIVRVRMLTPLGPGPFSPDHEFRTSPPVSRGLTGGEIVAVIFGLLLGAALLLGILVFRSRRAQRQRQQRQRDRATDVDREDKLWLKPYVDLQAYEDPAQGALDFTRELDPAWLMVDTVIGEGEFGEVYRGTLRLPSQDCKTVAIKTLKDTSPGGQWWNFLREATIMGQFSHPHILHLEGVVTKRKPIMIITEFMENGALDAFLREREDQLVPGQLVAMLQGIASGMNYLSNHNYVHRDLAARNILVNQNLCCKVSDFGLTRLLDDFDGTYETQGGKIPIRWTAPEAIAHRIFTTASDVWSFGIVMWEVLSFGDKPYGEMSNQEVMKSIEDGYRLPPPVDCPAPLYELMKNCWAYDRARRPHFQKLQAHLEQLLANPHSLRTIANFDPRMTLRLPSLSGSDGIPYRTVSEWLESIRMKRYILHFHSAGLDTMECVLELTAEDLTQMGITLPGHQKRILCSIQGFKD
Source text: as §1, §2, §3, §4, §5

Another assay concerns the target ROCK-I(h) (Homo sapiens, UniProt Q13464).
Source text: as §1, §2, §3, §4, §5

The target in a further assay is Fes(h) (Homo sapiens, UniProt P07332).
Source text: as §1, §2, §3, §4, §5

For the next assay, the target named is Rsk1(h) (Homo sapiens, UniProt Q15418).
Source text: as §1, §2, §3, §4, §5

The next assay concerns the target Plk1(h) (Homo sapiens, UniProt P53350).
Source text: as §1, §2, §3, §4, §5

Chain of Fes(h) (P07332 whole entry): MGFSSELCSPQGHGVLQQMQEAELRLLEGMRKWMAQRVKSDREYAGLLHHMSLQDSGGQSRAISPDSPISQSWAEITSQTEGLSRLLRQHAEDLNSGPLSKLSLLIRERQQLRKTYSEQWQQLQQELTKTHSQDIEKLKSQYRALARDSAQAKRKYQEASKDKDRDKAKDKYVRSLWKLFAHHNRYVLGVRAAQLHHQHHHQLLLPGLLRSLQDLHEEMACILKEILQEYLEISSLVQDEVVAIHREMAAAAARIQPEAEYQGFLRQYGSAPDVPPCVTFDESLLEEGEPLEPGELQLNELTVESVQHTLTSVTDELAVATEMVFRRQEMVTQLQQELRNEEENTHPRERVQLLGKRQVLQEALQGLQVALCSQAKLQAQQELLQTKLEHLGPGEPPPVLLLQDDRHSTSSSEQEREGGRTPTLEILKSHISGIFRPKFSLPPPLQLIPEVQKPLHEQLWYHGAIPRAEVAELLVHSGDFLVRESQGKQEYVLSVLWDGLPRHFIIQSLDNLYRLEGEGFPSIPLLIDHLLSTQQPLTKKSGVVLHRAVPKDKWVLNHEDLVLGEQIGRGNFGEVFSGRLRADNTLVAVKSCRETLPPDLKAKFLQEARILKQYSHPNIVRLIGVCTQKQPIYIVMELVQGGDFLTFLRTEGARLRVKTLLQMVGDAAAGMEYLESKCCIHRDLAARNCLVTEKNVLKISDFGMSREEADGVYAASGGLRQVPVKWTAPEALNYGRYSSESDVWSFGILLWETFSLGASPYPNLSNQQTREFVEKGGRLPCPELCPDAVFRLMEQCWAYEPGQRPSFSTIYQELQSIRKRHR
Chain of Plk1(h) (P53350 whole entry): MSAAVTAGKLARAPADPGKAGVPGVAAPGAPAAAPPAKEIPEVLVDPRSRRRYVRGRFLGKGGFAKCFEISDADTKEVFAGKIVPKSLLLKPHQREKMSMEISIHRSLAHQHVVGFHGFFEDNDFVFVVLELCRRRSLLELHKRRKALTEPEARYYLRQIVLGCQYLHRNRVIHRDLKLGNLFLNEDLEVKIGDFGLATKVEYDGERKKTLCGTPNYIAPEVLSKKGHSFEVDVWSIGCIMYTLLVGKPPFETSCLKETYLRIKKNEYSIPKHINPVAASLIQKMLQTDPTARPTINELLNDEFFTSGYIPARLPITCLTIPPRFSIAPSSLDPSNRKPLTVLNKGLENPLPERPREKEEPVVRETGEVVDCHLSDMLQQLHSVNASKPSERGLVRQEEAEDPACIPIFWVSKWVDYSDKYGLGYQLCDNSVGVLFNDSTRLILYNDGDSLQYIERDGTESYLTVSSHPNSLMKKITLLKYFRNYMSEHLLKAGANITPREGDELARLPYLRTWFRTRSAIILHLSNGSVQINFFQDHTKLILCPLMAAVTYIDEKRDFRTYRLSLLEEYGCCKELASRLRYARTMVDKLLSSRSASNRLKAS
Chain of ROCK-I(h) (Q13464 whole entry): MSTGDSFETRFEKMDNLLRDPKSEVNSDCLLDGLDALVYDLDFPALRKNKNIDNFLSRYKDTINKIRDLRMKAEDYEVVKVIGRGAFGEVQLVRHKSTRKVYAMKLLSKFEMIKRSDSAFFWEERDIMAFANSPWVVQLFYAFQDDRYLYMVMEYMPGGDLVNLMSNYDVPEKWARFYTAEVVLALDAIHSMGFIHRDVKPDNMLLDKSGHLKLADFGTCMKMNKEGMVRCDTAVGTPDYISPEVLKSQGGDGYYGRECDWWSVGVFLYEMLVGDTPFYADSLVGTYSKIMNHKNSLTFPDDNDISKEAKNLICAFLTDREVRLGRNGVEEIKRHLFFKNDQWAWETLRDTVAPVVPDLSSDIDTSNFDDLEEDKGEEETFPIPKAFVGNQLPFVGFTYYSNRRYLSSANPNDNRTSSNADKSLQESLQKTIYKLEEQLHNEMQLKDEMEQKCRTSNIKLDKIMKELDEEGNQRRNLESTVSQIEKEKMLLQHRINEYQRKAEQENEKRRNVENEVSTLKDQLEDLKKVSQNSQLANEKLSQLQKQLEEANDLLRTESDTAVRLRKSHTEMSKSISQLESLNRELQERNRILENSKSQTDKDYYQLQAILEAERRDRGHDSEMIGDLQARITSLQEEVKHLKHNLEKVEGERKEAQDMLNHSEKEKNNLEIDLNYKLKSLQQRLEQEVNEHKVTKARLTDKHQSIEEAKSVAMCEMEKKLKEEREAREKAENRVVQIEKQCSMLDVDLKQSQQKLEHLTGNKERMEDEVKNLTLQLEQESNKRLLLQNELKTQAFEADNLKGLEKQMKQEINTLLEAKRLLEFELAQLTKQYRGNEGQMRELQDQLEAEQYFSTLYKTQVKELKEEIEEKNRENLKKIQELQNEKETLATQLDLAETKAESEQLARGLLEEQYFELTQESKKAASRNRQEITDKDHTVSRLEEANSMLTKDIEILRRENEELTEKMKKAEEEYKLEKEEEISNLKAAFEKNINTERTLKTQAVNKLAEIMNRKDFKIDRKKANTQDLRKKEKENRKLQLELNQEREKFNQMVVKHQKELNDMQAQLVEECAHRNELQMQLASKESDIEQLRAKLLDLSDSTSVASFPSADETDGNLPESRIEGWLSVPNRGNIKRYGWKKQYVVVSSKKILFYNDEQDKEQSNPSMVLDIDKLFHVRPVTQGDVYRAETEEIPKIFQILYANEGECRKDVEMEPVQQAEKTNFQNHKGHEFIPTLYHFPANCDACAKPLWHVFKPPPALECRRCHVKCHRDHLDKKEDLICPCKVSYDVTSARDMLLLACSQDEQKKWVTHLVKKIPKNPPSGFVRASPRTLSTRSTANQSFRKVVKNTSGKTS
Chain of Pim-1(h) (P11309 whole entry): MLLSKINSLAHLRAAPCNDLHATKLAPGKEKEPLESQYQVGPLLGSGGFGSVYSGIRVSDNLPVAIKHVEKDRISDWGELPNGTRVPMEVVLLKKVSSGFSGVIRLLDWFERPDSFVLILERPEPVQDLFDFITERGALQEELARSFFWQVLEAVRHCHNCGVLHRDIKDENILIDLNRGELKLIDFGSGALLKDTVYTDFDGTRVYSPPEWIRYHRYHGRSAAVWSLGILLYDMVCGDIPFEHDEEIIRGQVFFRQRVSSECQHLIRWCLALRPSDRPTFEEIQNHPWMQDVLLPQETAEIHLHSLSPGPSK
Chain of CDK5/p25(h) (Q00535 whole entry): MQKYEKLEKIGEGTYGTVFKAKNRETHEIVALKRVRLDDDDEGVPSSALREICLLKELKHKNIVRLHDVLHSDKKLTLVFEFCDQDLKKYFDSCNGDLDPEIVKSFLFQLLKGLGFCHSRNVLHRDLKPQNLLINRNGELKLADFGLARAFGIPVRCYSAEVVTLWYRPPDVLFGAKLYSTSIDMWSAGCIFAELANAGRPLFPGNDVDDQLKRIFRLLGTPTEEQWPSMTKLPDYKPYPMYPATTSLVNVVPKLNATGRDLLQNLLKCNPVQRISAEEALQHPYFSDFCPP
Chain of CDK5/p25(h) (Q15078 99-307 partner limits assumed): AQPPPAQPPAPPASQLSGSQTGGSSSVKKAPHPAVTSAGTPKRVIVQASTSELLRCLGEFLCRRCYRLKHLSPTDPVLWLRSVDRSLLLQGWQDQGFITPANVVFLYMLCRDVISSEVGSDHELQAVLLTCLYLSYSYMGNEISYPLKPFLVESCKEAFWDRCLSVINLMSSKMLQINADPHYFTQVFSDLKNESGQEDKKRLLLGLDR
Chain of Rsk1(h) (Q15418 whole entry): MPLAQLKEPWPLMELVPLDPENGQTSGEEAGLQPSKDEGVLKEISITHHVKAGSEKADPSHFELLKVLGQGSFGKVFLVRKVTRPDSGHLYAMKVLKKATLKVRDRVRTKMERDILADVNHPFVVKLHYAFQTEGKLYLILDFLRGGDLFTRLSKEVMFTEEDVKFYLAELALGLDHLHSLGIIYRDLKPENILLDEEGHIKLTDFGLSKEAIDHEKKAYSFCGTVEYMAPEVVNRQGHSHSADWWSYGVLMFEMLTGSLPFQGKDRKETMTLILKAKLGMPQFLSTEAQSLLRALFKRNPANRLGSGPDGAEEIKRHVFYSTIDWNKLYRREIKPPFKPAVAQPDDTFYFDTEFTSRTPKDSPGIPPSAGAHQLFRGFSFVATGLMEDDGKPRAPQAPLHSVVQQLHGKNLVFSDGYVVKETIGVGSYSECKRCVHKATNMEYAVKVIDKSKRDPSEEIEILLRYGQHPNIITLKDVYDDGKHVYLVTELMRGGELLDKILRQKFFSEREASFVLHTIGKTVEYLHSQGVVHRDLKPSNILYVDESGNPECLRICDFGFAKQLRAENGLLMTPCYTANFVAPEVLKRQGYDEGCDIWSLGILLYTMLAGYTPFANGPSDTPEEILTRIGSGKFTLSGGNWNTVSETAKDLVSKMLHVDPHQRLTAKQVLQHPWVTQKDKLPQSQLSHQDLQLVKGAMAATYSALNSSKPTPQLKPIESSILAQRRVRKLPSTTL

In general, inhibition refers to the change of the read-out against control, counted positive when it falls. Turning to `Nc1n[nH]c2ccc(-c3ccnc4[nH]c(-c5ccccc5)cc34)cc12` [Compound 4], the inhibition at 1 µM on Pim-1(h) came out at 23%; against CDK5/p25(h), 101%; at Mer(h), 88%; on EphA1(h), 87%; at ROCK-I(h) it was 13%; against Fes(h) it was 80%. In addition, the inhibition at 1 µM against Rsk1(h) is 38%; at Plk1(h), -5%.
For the compound `Nc1n[nH]c2ccc(-c3ccnc4[nH]c(-c5cccc(OCc6ccccc6)c5)cc34)cc12` [Compound 5r [SU1261]], the inhibition at 1 µM against Pim-1(h) is -1%; against CDK5/p25(h), 96%; at Mer(h), 27%; against EphA1(h), 24%; against ROCK-I(h), 28%; against Fes(h) it was 50%. Also, the inhibition at 1 µM against Rsk1(h) was 2%; against Plk1(h), -1%.
With `Nc1n[nH]c2ccc(-c3ccnc4[nH]c(-c5ccnc(OCc6ccccc6)c5)cc34)cc12` [Compound 6g [SU1349]], the inhibition at 1 µM against Pim-1(h) was 8%; against CDK5/p25(h) it was 92%; at Mer(h), 12%; at EphA1(h), -7%; against ROCK-I(h), 10%; against Fes(h), -31%. In addition, the inhibition at 1 µM is -18% at Rsk1(h) and 2% against Plk1(h).
